Where a SMILES comes first, the peptide text is derived from it. Bridges are numbered along the chain shown (N, C = ends). [ ]: non-standard residue; d: D form. dPen = CC(C)(S)[C@@H](N)C(=O)O; Dap = NC[C@H](N)C(=O)O
Target: T1, P-selectin (Homo sapiens, UniProt P16109)
T1 construct: P-selectin is isolated from human platelet lysates; from tissue; host or cells: human platelets (outdated platelet packs from a blood bank)
T1 sequence (P16109 42-830): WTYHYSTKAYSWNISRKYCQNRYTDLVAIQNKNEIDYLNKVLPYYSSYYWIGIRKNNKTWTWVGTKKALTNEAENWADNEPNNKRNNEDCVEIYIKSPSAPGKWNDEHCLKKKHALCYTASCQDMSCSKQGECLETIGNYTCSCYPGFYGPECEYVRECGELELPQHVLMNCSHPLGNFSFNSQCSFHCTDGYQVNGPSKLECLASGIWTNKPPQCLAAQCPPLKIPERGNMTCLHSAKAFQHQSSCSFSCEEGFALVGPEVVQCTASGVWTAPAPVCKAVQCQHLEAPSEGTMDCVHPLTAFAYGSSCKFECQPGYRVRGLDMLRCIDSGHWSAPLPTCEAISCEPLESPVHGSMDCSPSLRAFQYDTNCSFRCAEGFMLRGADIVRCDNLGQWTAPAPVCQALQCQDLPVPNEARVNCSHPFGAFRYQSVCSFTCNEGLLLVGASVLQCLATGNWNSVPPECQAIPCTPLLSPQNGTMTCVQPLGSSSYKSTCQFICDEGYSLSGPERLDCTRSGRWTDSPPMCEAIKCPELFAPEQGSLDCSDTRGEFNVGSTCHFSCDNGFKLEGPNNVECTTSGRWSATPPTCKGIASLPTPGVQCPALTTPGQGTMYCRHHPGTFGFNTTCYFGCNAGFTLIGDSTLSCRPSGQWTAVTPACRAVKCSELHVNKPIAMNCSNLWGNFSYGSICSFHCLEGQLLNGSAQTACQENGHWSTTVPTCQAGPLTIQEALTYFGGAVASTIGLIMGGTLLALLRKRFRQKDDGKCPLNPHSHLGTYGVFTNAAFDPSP
Test: Inhibition of human neutrophil adhesion to purified P-selectin immobilized on plastic wells
Type: cell-based
Conditions: inhibiting the binding of human neutrophils to P-selectin
Excerpt: Peptides can be screened for their ability to inhibit adhesion to cells, for example, neutrophil adhesion to purified P-selectin immobilized on plastic wells, using the assay described by Geng, et al., Nature 343, 757-760 (1990). Human neutrophils are isolated from heparinized whole blood by density gradient centrifugation on Mono-Poly resolving media, Flow Laboratories. Neutrophil suspensions are greater than 98% pure and greater than 95% viable by trypan blue exclusion. For adhesion assays, neutrophils are suspended at a concentration of 2×10^6 cells/mL in Hanks' balanced salt solution containing 1.26 mM Ca^2+ and 0.81 mM Mg^2+ (HBSS, Gibco) with […] human serum albumin (HBSS/HSA). Adhesion assays are conducted in triplicate in 96-well microliter plates, Corning, incubated at 4° C. overnight with 50 microliters of various protein solutions. P-selectin is isolated from human platelet lysates by immunoaffinity chromatography on antibody S12-Sepharose™ and ion-exchange chromatography on a Mono-Q™ column (FLPC, Pharmacia Fine Chemicals), as follows. Outdated human platelet packs (100 units) obtained from a blood bank and stored at 4° C. are pooled, adjusted to 5 mM EDTA at pH 7.5, centrifuged at 4,000 rpm for 30 minutes in 1 liter bottles, then washed three times with 1 liter of 0.1M NaCl, 20 mM Tris pH 7.5 (TBS), 5 mM EDTA, 5 mM benzamidine. The pellets are then resuspended in a minimum amount of wash buffer and made 1 mM in DIFP, then frozen in 50 mL screwtop tubes at -80° C. The frozen platelets are thawed and resuspended in 50 mL TBS, 5 mM benzamidine, 5 mM EDTA pH 7.5, […]. The suspension is frozen and thawed two times in a dry ice-acetone bath using a 600 mL lyophilizing flask, then homogenized in a glass/teflon mortar and pestle and made 1 mM in DIFP. The NaCl concentration is adjusted to 0.5M with a stock solution of 4M NaCl. After stirring the suspension at 4° C., it is centrifuged in polycarbonate tubes at 33,000 rpm for 60 minutes at 4° C. The supernatant (0.5M NaCl wash) is removed and saved; this supernatant contains the soluble form of P-selectin. Care is taken not to remove the top part of the pellet with the supernatant. The pellets are then homogenized in extraction buffer (TBS, 5 mM benzamidine, 5 mM EDTA, pH 7.5, 100 μM leupeptin, 2% Triton X-100). After centrifugation at 19,500 rpm for 25 minutes at 4° C., the supernatant is removed. The extraction procedure is repeated with the pellet and the supernatant is combined with the first supernatant. The combined extracts, which contain the membrane form of P-selectin, are adjusted to 0.5M NaCl. The soluble fraction (0.5M NaCl wash) and the membrane extract (also adjusted to 0.5M NaCl) are absorbed with separate pools of the monoclonal antibody S12 (directed to P-selectin) previously couple […]) at 5 mg/mL for 2 hours at 4° C. After letting the resins settle, the supernatants are removed. The S12 Affigel containing bound GMP-140 is then loaded into a column and washed overnight at 4° C. with 400 mL of 0.5M NaCl, 20 mM Tris pH 7.5, 0.01% Lubrol PX. Bound P-selectin is eluted from the S12 Affigel with 100 mL of 80% ethylene glycol, 1 mM MES pH 6.0, 0.01% Lubrol PX. Peak fractions with absorbance at 280 nm are pooled. Eluates are dialyzed against TBS with 0.05% Lubrol, then applied to a Mono Q column (FPLC from Pharmacia). The concentrated protein is step eluted with 2M NaCl, 20 mM Tris pH 7.5 (plus 0.05% Lubrol PX for the membrane fraction). Peak fractions are dialyzed into TBS pH 7.5 (plus 0.05% Lubrol PX for the membrane fraction). P-selectin is plated at 5 micrograms/mL and the control proteins: human serum albumin (Alb), platelet glycoprotein IIb/IIIa (IIb), von Willebrand factor (vWF), fibrinogen (FIB), thrombomodulin (TM), gelatin (GEL) or human serum (HS), are added at 50 micrograms/mL. […]

SMILES | IC50 [µM]
CC[C@H](C)[C@@H]1NC(=O)[C@H](CCCCN)NC(=O)[C@@H](N)CCCCNC(=O)CC[C@@H](C(=O)N[C@@H](Cc2c[nH]c3ccccc23)C(=O)N[C@H](C(=O)N[C@@H](Cc2c[nH]c3ccccc23)C(=O)N[C@H](C(N)=O)C(C)C)[C@@H](C)O)NC(=O)CNC(=O)CNC1=O [(2)] (H-KKIGGEWTWV-NH2; lactam 1-6) | 69
CC[C@H](C)[C@@H]1NC(=O)CNC(=O)CNC(=O)[C@H]([C@@H](C)CC)NC(=O)[C@H](CCCCN)NC(=O)[C@@H](N)CSSC[C@@H](C(N)=O)NC(=O)[C@H](Cc2c[nH]c3ccccc23)NC(=O)[C@H]([C@@H](C)O)NC(=O)[C@H](Cc2c[nH]c3ccccc23)NC1=O [(3)] (H-CKIGGIWTWC-NH2; disulfide 1-10) | 131
CC(C)[C@H](NC(=O)[C@H](Cc1c[nH]c2ccccc12)NC(=O)[C@@H](NC(=O)[C@H](Cc1c[nH]c2ccccc12)NC(=O)[C@@H]1CSSC[C@H](N)C(=O)N[C@@H](CCCNC(=N)N)C(=O)NCC(=O)NCC(=O)N1)[C@@H](C)O)C(N)=O [(6)] (H-CRGGCWTWV-NH2; disulfide 1-5) | 54
C[C@@H](O)[C@H](NC(=O)[C@H](Cc1c[nH]c2ccccc12)NC(=O)[C@@H]1CSSC[C@H](NC(=O)[C@H](CCCCN)NC(=O)[C@@H](N)CCCNC(=N)N)C(=O)NCC(=O)NCC(=O)N1)C(=O)N[C@@H](Cc1c[nH]c2ccccc12)C(N)=O [(7)] (H-RKCGGCWTW-NH2; disulfide 3-6) | 610
C[C@H](O)[C@@H](NC(=O)[C@@H](Cc1c[nH]c2ccccc12)NC(=O)[C@H]1CSSC[C@@H](NC(=O)[C@@H](CCCCN)NC(=O)[C@H](N)CCCNC(=N)N)C(=O)NCC(=O)NCC(=O)N1)C(=O)N[C@H](Cc1c[nH]c2ccccc12)C(N)=O [(8)] (H-[dR][dK][dC]GG[dC][dW][dT][dW]-NH2; disulfide 3-6) | 97
CC(C)[C@@H](NC(=O)[C@@H](Cc1c[nH]c2ccccc12)NC(=O)[C@H](NC(=O)[C@@H](Cc1ccccc1)NC(=O)[C@H]1CSSC[C@@H](NC(=O)[C@@H](CCCCN)NC(=O)[C@H](N)CCCNC(=N)N)C(=O)NCC(=O)NCC(=O)N1)[C@H](C)O)C(N)=O [(14)] (H-[dR][dK][dC]GG[dC][dF][dT][dW][dV]-NH2; disulfide 3-6) | 40
CC(C)[C@@H](NC(=O)[C@@H](Cc1c[nH]c2ccccc12)NC(=O)[C@H](NC(=O)[C@@H](Cc1c[nH]c2ccccc12)NC(=O)[C@H]1CSSC[C@@H](NC(=O)[C@@H](CCCCN)NC(=O)[C@H](N)CCCNC(=N)N)C(=O)N2CCC[C@@H]2C(=O)NCC(=O)N1)[C@H](C)O)C(N)=O [(15)] (H-[dR][dK][dC][dP]G[dC][dW][dT][dW][dV]-NH2; disulfide 3-6) | 485
CC(C)[C@@H](NC(=O)[C@@H](Cc1c[nH]c2ccccc12)NC(=O)[C@@H](CCC(N)=O)NC(=O)[C@H](NC(=O)[C@@H](Cc1c[nH]c2ccccc12)NC(=O)[C@H]1CSSC[C@@H](NC(=O)[C@@H](CCCCN)NC(=O)[C@H](N)CCCNC(=N)N)C(=O)NCC(=O)NCC(=O)N1)[C@H](C)O)C(N)=O [(17)] (H-[dR][dK][dC]GG[dC][dW][dT][dQ][dW][dV]-NH2; disulfide 3-6) | 225
CC(C)[C@H](NC(=O)[C@H](Cc1c[nH]c2ccccc12)NC(=O)[C@@H](NC(=O)[C@H](Cc1c[nH]c2ccccc12)NC(=O)[C@@H]1CSSC(C)(C)[C@@H](NC(=O)[C@H](CCCCN)NC(=O)[C@@H](N)CCCNC(=N)N)C(=O)NCC(=O)NCC(=O)N1)[C@@H](C)O)C(N)=O [(23)] (H-RK[dPen]GGCWTWV-NH2; disulfide 3-6) | 36
CC(C)[C@H](NC(=O)[C@H](Cc1c[nH]c2ccccc12)NC(=O)[C@@H](NC(=O)[C@H](Cc1c[nH]c2ccccc12)NC(=O)[C@@H]1NC(=O)CNC(=O)CNC(=O)[C@H](NC(=O)[C@H](CCCCN)NC(=O)[C@@H](N)CCCNC(=N)N)C(C)(C)SSC1(C)C)[C@@H](C)O)C(N)=O [(24)] (H-RK[dPen]GG[dPen]WTWV-NH2; disulfide 3-6) | 41
CC(C)[C@@H](NC(=O)[C@@H](Cc1c[nH]c2ccccc12)NC(=O)[C@H](NC(=O)[C@@H](Cc1c[nH]c2ccccc12)NC(=O)[C@H]1CSSC[C@@H](N)C(=O)NCC(=O)NCC(=O)N1)[C@H](C)O)C(N)=O [(28)] (H-[dC]GG[dC][dW][dT][dW][dV]-NH2; disulfide 1-4) | 311

Further lines, results first:

IC50 [µM] | SMILES
36 | CC[C@H](C)[C@@H]1NC(=O)[C@@H](NC(=O)[C@@H](N)CCCNC(=N)N)CSSC[C@@H](C(=O)N[C@@H](Cc2c[nH]c3ccccc23)C(=O)N[C@H](C(=O)N[C@@H](Cc2c[nH]c3ccccc23)C(=O)N[C@H](C(N)=O)C(C)C)[C@@H](C)O)NC(=O)CNC(=O)CNC1=O [(5)] (H-RCIGGCWTWV-NH2; disulfide 2-6)
30 | CC(C)[C@H](NC(=O)[C@H](Cc1c[nH]c2ccccc12)NC(=O)[C@@H](NC(=O)[C@H](Cc1c[nH]c2ccccc12)NC(=O)[C@@H]1NC(=O)CNC(=O)CNC(=O)[C@@H](NC(=O)[C@H](CCCCN)NC(=O)[C@@H](N)CCCNC(=N)N)CSSC1(C)C)[C@@H](C)O)C(N)=O [(10)] (H-RKCGG[dPen]WTWV-NH2; disulfide 3-6)
1 | CC(C)[C@@H](NC(=O)[C@@H](Cc1c[nH]c2ccccc12)NC(=O)[C@H](NC(=O)[C@@H](Cc1c[nH]c2ccccc12)NC(=O)[C@H]1CSSC[C@@H](NC(=O)[C@@H](CCCCN)NC(=O)[C@H](N)CCCNC(=N)N)C(=O)NCC(=O)N2CCC[C@@H]2C(=O)N1)[C@H](C)O)C(N)=O [(16)] (H-[dR][dK][dC]G[dP][dC][dW][dT][dW][dV]-NH2; disulfide 3-6)
13 | CC(C)[C@H](NC(=O)[C@H](Cc1c[nH]c2ccccc12)NC(=O)[C@@H](NC(=O)[C@H](Cc1c[nH]c2ccccc12)NC(=O)[C@@H]1CC(=O)NC[C@H](NC(=O)[C@H](CCCCN)NC(=O)[C@@H](N)CCCNC(=N)N)C(=O)NCC(=O)NCC(=O)N1)[C@@H](C)O)C(N)=O [(22)] (H-RK[Dap]GGDWTWV-NH2; lactam 3-6)
26 | CC(C)[C@@H](NC(=O)[C@@H](Cc1c[nH]c2ccccc12)NC(=O)[C@H](NC(=O)[C@@H](Cc1c[nH]c2ccccc12)NC(=O)[C@H]1CSSC[C@@H](NC(=O)[C@H](N)CCCCN)C(=O)NCC(=O)NCC(=O)N1)[C@H](C)O)C(N)=O [(26)] (H-[dK][dC]GG[dC][dW][dT][dW][dV]-NH2; disulfide 2-5)

— patent publication US5753617A, “Peptide inhibitors of cellular adhesion” (Centocor, Inc., priority 1995, dated 1998)
